US12630528B2, “Amino aryl derivative useful as diacylglycerol acyltransferase 2 inhibitor and use thereof” (LG CHEM, LTD., priority 2019, dated 2026)

Each compound was assayed against T1, human DGAT2 (Homo sapiens, UniProt Q96PD7) (assay: DGAT2 enzyme activity inhibition, Phospholipid FlashPlate SPA). Details: recombinant human DGAT2 membrane protein from Sf-21 cells; inhibition of [14C]-TG production; 37° C.
T1 construct: FLAG (DYKDDDDK); made in house; host or cells: Sf-21 insect cells (BacPAK baculovirus system); membrane fraction used
T1 sequence (Q96PD7 1-388): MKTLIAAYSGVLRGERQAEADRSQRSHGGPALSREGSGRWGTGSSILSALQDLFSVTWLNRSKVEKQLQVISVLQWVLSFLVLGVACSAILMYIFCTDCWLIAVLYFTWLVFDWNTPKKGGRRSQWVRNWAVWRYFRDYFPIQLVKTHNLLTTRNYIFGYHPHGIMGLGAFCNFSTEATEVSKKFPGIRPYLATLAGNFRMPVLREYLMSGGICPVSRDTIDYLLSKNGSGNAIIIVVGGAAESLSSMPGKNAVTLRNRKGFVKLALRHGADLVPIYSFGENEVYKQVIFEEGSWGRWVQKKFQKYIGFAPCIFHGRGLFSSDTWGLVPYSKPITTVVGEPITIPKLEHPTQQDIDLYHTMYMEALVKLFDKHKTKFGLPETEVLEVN
Type: biochemical
How it was run: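 Sf-21 membranes expressing recombinant human DGAT2 (2 μg) preincubated with compound (3 nM–10 μM, 1% DMSO) and 50 μM 1,2 sn-oleoyl glycerol, 20 min at 37 °C, then 1 μM [14C]oleoyl-CoA for 15 min. [14C]-TG counted by SPA; inhibition as % of untreated.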

| Compound | IC50 [nM] |
| --- | --- |
| CCOc1cccnc1O[C@@H]1CCCN(c2cncc(Nc3cccc(Oc4cccc(C(=O)O)c4)n3)n2)C1 [Example 88, (R)-3-((6-((6-(3-((3-ethoxypyridin-2-yl)oxy)piperidin-1-yl)pyrazin-2-yl)amino)pyridin-2-yl)oxy)benzoic Acid] | 1300 |
| CCOc1ccccc1O[C@@H]1CCCN(c2cncc(Nc3cccc(Oc4cccc(C(=O)O)c4)n3)n2)C1 [Example 87, (R)-3-((6-((6-(3-(2-ethoxyphenoxy)piperidin-1-yl)pyrazin-2-yl)amino)pyridin-2-yl)oxy)benzoic Acid] | 500 |
| CCOc1cccnc1O[C@@H]1CCCN(c2cncc(Nc3cccc(-c4ccc(OC(C)(C)C(=O)O)cc4)n3)n2)C1 [Example 83, (R)-2-(4-(6-((6-(3-((3-ethoxypyridin-2-yl)oxy)piperidin-1-yl)pyrazin-2-yl)amino)pyridin-2-yl)phenoxy)-2-methylpropanoic Acid] | 500 |
| CCOc1ccccc1O[C@@H]1CCCN(c2cncc(Nc3cccc(Oc4cccc(C(C)(C)C(=O)O)c4)n3)n2)C1 [Example 91, (R)-2-(3-((6-((6-(3-(2-ethoxyphenoxy)piperidin-1-yl)pyrazin-2-yl)amino)pyridin-2-yl)oxy)phenyl)-2-methylpropanoic Acid] | 340 |
| CCOc1ccccc1O[C@@H]1CCCN(c2cncc(Nc3nc4ccc(C(C)(C)C(=O)O)cc4o3)n2)C1 [Example 17, (R)-2-(2-((6-(3-(2-ethoxyphenoxy)piperidin-1-yl)pyrazin-2-yl)amino)benzo[d]oxazol-6-yl)-2-methylpropanoic Acid] | 1300 |
| CCOc1ccccc1O[C@@H]1CCCN(c2cncc(Nc3cc(-c4cccc(CC(C)(C)C(=O)O)c4)ccn3)n2)C1 [Example 44, (R)-3-(3-(2-((6-(3-(2-ethoxyphenoxy)piperidin-1-yl)pyrazin-2-yl)amino)pyridin-4-yl)phenyl)-2,2-dimethylpropanoic Acid] | 4000 |

Next, values leading:

| IC50 [nM] | Compound |
| --- | --- |
| 2700 | CCOc1ccccc1O[C@@H]1CCCN(c2cncc(Nc3cc(CC(C)(C)C(=O)O)ccn3)n2)C1 [Example 39, (R)-3-(2-((6-(3-(2-ethoxyphenoxy)piperidin-1-yl)pyrazin-2-yl)amino)pyridin-4-yl)-2,2-dimethylpropanoic Acid] |
| 3600 | CCOc1ccccc1O[C@@H]1CCCN(c2cncc(Nc3nccc(N4CCC[C@@H](OC(C)(C)C(=O)O)C4)n3)n2)C1 [Example 133, 2-(((R)-1-(2-((6-((R)-3-(2-ethoxyphenoxy)piperidin-1-yl)pyrazin-2-yl)amino)pyrimidin-4-yl)piperidin-3-yl)oxy)-2-methylpropanoic Acid] |
| 250 | CCOc1ccccc1O[C@@H]1CCCN(c2cncc(Nc3cccc(-c4ccc(NC(C)(C)C(=O)O)cc4)n3)n2)C1 [Example 77, (R)-2-((4-(6-((6-(3-(2-ethoxyphenoxy)piperidin-1-yl)pyrazin-2-yl)amino)pyridin-2-yl)phenyl)amino)-2-methylpropanoic Acid] |
| 310 | CCOc1ccccc1O[C@@H]1CCCN(c2cncc(Nc3cccc(N4CCC(C(C)(C)C(=O)O)CC4)n3)n2)C1 [Example 58, (R)-2-(1-(6-((6-(3-(2-ethoxyphenoxy)piperidin-1-yl)pyrazin-2-yl)amino)pyridin-2-yl)piperidin-4-yl)-2-methylpropanoic Acid] |
| 130 | CCOc1ccccc1O[C@@H]1CCCN(c2cncc(Nc3ccccn3)n2)C1 [Example 31, (R)-6-(3-(2-ethoxyphenoxy)piperidin-1-yl)-N-(pyridin-2-yl)pyrazin-2-amine] |
| 350 | CCOc1cccnc1O[C@@H]1CCCN(c2cncc(Nc3nc(-c4cc(CC(C)(C)C(=O)O)ccc4F)ccc3F)n2)C1 [Example 108, (R)-3-(3-(6-((6-(3-((3-ethoxypyridin-2-yl)oxy)piperidin-1-yl)pyrazin-2-yl)amino)-5-fluoropyridin-2-yl)-4-fluorophenyl)-2,2-dimethylpropanoic Acid] |
